In patent publication US4886810A, “Quinoline derivatives, pharmaceutical composition and method of use” (Dainippon Pharmaceutical Co., Ltd., priority 1986, dated 1989):
Converted amounts (≈) assume the structure as drawn. Read-outs that look alike come from different tables or passages of the source.

Columns and labels:
[1] = test system: Gram-positive and Gram-negative bacteria; experiment: In vitro antibacterial activity, overall; type: cell-based
Description: The numbers in the table show minimum inhibitory concentrations (MIC) (μg/ml), calculated for free base. The minimum inhibitory concentration was determined by the twofold agar-dilution method, which was recommended by Japan Society of Chemotherapy (Chemotherapy, 29(1), (1981)), using Muller-Hinton agar. One loopful of an overnight culture of test organisms in Mueller-Hinton broth was inoculated onto 10-ml drug-containing agar layers in petri dishes. Bacterial inocula contained approximately 10^6 colonyl-forming units. Bacterial growth was observed after 20-hour incubation at 37° C. The MIC was defined as the lowest drug concentration which prevented visible bacterial growth.

B. abortus kusayanagi = experiment: microbe, parasite or virus in culture; type: cell-based; conditions: Brucella abortus, 20 h; read-out: minimum inhibitory concentrations (MIC)
in vivo [2] = conditions: mouse, po
P. aeruginosa 12 = experiment: microbe, parasite or virus in culture; type: cell-based; conditions: Pseudomonas aeruginosa, 12, 20 h; read-out: minimum inhibitory concentrations (MIC)
[3] = test system: Pseudomonas aeruginosa 12; experiment: animal or person; type: in vivo
S. pyogenes A 65 = experiment: microbe, parasite or virus in culture; type: cell-based; conditions: Streptococcus pyogenes, A65, 20 h; read-out: minimum inhibitory concentrations (MIC)
M. bovis P-7101 = experiment: microbe, parasite or virus in culture; type: cell-based; conditions: Mycobacterium tuberculosis variant bovis, P7101, 20 h; read-out: minimum inhibitory concentrations (MIC)
S. pyogenes Cook = experiment: microbe, parasite or virus in culture; type: cell-based; conditions: Streptococcus pyogenes, 20 h; read-out: minimum inhibitory concentrations (MIC)
S. aureus No. 80 = experiment: microbe, parasite or virus in culture; type: cell-based; conditions: Staphylococcus aureus, NO.80, 20 h; read-out: minimum inhibitory concentrations (MIC)
E. coli P-51213 = experiment: microbe, parasite or virus in culture; type: cell-based; conditions: Escherichia coli, P51213, 20 h; read-out: minimum inhibitory concentrations (MIC)
M. lacunata P-7102 = experiment: microbe, parasite or virus in culture; type: cell-based; conditions: 20 h; read-out: minimum inhibitory concentrations (MIC)
Flavobacterium sp P-7201 = experiment: microbe, parasite or virus in culture; type: cell-based; conditions: P7201, 20 h, read-out: minimum inhibitory concentrations (MIC)
S. aureus No. 50774 = experiment: microbe, parasite or virus in culture; type: cell-based; conditions: Staphylococcus aureus, NO.50774, 20 h; read-out: minimum inhibitory concentrations (MIC)
S. aureus 209P JC-1 = experiment: microbe, parasite or virus in culture; type: cell-based; conditions: Staphylococcus aureus, 20 h, read-out: minimum inhibitory concentrations (MIC)
male mice (ddY) = experiment: Acute oral toxicity in mice (Table 3); conditions: mouse, in vivo
[4] = test system: Staphylococcus aureus 50774; experiment: animal or person; type: in vivo
[5] = test system: Gram-positive and Gram-negative bacteria; experiment: In vivo efficacy against systemic infections, overall
Description: Compounds were each dissolved in deionized water. Each of the solutions was orally administered to mice infected with each of the test organisms under the conditions shown hereinbelow, and the median effective dose (ED 50) was calculated by […]. The numerals in the table show ED50 (mg/kg) value, calculated for free base.
Mice: Male mice (ddY-S) weighing about 20 g Infection:
Twice, immediately and 6 hours after infection.
For 14 days in case of Staphylococcus aureus 50774.
For 7 days in case of other organisms.

in vivo [6] = experiment: in vivo; parameters: species or system mice; conditions: mouse; for dose excreted at 24 h: 5 mg/kg
[7] = test system: Streptococcus pyogenes A65; experiment: animal or person; type: in vivo; conditions: A65, in Mus musculus, po, 168 h, 7 days, read-out: median effective dose (ED50)

With `CC1CN(c2c(F)c(F)c3c(=O)c(C(=O)O)cn(C4CC4)c3c2F)CCN1` (centres unmarked) [Compound 1, 1-cyclopropyl-5,6,8-trifluoro-7-(3-methyl-1-piperazinyl)-1,4-dihydro-4-oxoquinoline-3-carboxylic acid] the “antibacterial activity against Gram-positive and Gram-negative bacteria (in words)” value [1] was “very high antibacterial activities”, the MIC (B. abortus kusayanagi) was 3.13 µg/mL (≈ 8.21 µM) and the LD50 at 168 h (in vivo [2]) was over 2000 mg/kg. The MIC (P. aeruginosa 12) was 0.78 µg/mL (≈ 2.05 µM), the ED50 ([3]; Pseudomonas aeruginosa, 12, in Mus musculus, po, 168 h, 7 days, read-out: median effective dose (ED50)) was 2.46 mg/kg and the “efficacy against systemic infection by P. aeruginosa 12 compared with Compound A (in words)” value ([3]; in vivo) was “better efficacy”. It also gave an MIC (S. pyogenes A 65) of 1.56 µg/mL (≈ 4.09 µM), an MIC (M. bovis P-7101) of 1.56 µg/mL (≈ 4.09 µM) and an MIC (S. pyogenes Cook) of 1.56 µg/mL (≈ 4.09 µM). It also gave an MIC (S. aureus No. 80) of 0.2 µg/mL (≈ 0.524 µM), an MIC (E. coli P-51213) of 0.1 µg/mL (≈ 0.262 µM) and an MIC (M. lacunata P-7102) of 6.25 µg/mL (≈ 16.4 µM). The MIC (Flavobacterium sp P-7201) was 0.39 µg/mL (≈ 1.02 µM), the MIC (S. aureus No. 50774) was 0.2 µg/mL (≈ 0.524 µM) and the MIC (S. aureus 209P JC-1) was 0.2 µg/mL (≈ 0.524 µM). The “toxicity (in words)” value (male mice (ddY)) was “low oral toxicity”, the ED50 ([4]; Staphylococcus aureus, 50774, in Mus musculus, po, 336 h, 14 days, read-out: median effective dose (ED50)) was 2.4 mg/kg and the “efficacy against systemic infection by S. aureus 50774 compared with Compound B (in words)” value ([4]; in vivo) was “better efficacy”. For the same compound, the “therapeutic effect on infections by Gram-positive and Gram-negative bacteria (in words)” value ([5]; in vivo) was “potent therapeutic effects”, the “therapeutic effect compared with Compounds A and B (in words)” value ([5]; versus Compounds A and B, systemic infections, mice) was “better therapeutic effects” and the dose excreted at 24 h (in vivo [6]; feces, iv, read-out: Feces recovery) was 14%. The dose excreted at 24 h (in vivo [6]; feces, po, read-out: Feces recovery) was 22.3%, the “absorbability (in words)” value (in vivo [6]; in vivo) was “very good oral absorbability” and the “metabolic stability (in words)” value (in vivo [6]; in vivo) was “good metabolic stability”. The “total recovery (in words)” value (in vivo [6]; in vivo) was “High total recovery”, the “urinary excretion (in words)” value (in vivo [6]; in vivo) was “very good” and the “metabolic stability and oral absorbability compared with Compound B (in words)” value (in vivo [6]; in vivo, po) was “superior to Compound B in metabolic stability and oral absorbability”. It also gave a dose excreted at 24 h (in vivo [6]; urine and feces, iv, read-out: Total recovery) of 77.6%, a dose excreted at 24 h (in vivo [6]; urine and feces, po, read-out: Total recovery) of 85.7% and a dose excreted at 24 h (in vivo [6]; urine, iv, read-out: Urine recovery) of 63.6%. It also gave a dose excreted at 24 h (in vivo [6]; urine, po, read-out: Urine recovery) of 63.4% and an ED50 [7] of 17.3 mg/kg.
